Experimental data: article PMC11059415 (Heliyon, 2024)

Molecular target: T1, Sp-Fld (Sp-flavodoxin) (Streptococcus pneumoniae, UniProt Q8DPG4)
T1 sequence (Q8DPG4 1-147): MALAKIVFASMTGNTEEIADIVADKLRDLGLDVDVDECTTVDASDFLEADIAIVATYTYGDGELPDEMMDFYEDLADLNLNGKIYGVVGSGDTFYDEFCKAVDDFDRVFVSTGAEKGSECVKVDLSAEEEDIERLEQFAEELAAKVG
Assay: isothermal titration calorimetry
Format: binding

Kd: 2500 ± 400 nM
Compound: N[C@@H](Cc1cc(I)c(Oc2cc(I)c(O)c(I)c2)c(I)c1)C(=O)O [Cp1, L-thyroxine]
